Among the targets are DAPK3 (Homo sapiens, UniProt O43293); p38a (Homo sapiens, UniProt Q16539); FES (Homo sapiens, UniProt P07332); Erk2 (Homo sapiens, UniProt P28482).
Common to all, as to settings: binder
A further test concerns the target T1, NEK1 (Homo sapiens, UniProt Q96PY6).
T1 sequence (Q96PY6 1-1258): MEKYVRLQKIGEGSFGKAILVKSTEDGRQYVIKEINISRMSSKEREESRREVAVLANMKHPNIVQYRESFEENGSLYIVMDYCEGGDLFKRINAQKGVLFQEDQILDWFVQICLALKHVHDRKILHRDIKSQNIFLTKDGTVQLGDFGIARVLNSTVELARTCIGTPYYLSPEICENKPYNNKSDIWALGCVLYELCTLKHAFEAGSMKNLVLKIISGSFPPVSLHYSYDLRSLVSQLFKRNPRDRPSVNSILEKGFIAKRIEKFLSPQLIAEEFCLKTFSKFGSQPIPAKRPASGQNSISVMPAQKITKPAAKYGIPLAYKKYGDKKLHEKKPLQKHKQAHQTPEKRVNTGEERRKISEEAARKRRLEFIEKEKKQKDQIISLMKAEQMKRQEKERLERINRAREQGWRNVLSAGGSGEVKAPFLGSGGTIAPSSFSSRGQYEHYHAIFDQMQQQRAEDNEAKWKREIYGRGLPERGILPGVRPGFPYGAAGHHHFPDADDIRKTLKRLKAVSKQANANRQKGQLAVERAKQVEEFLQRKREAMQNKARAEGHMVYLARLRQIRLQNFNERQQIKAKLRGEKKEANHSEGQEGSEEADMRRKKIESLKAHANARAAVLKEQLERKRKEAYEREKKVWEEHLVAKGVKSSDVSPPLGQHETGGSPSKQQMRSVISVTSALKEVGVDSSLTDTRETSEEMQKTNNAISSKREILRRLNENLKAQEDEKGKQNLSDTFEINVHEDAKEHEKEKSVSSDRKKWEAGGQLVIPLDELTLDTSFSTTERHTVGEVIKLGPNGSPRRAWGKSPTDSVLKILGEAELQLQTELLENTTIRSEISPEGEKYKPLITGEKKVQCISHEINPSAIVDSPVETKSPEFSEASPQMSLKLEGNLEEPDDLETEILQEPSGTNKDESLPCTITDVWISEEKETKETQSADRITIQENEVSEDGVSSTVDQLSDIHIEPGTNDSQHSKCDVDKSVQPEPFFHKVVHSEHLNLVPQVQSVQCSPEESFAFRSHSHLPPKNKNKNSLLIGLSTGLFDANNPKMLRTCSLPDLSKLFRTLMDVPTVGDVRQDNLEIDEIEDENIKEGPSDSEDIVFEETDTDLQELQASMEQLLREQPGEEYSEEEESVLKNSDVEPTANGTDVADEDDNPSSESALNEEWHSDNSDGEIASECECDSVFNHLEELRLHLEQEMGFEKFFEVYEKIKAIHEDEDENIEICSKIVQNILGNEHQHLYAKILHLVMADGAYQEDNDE

Another test has as its target T2, BRPF1 (Homo sapiens, UniProt P55201).
T2 sequence (P55201 1-1214): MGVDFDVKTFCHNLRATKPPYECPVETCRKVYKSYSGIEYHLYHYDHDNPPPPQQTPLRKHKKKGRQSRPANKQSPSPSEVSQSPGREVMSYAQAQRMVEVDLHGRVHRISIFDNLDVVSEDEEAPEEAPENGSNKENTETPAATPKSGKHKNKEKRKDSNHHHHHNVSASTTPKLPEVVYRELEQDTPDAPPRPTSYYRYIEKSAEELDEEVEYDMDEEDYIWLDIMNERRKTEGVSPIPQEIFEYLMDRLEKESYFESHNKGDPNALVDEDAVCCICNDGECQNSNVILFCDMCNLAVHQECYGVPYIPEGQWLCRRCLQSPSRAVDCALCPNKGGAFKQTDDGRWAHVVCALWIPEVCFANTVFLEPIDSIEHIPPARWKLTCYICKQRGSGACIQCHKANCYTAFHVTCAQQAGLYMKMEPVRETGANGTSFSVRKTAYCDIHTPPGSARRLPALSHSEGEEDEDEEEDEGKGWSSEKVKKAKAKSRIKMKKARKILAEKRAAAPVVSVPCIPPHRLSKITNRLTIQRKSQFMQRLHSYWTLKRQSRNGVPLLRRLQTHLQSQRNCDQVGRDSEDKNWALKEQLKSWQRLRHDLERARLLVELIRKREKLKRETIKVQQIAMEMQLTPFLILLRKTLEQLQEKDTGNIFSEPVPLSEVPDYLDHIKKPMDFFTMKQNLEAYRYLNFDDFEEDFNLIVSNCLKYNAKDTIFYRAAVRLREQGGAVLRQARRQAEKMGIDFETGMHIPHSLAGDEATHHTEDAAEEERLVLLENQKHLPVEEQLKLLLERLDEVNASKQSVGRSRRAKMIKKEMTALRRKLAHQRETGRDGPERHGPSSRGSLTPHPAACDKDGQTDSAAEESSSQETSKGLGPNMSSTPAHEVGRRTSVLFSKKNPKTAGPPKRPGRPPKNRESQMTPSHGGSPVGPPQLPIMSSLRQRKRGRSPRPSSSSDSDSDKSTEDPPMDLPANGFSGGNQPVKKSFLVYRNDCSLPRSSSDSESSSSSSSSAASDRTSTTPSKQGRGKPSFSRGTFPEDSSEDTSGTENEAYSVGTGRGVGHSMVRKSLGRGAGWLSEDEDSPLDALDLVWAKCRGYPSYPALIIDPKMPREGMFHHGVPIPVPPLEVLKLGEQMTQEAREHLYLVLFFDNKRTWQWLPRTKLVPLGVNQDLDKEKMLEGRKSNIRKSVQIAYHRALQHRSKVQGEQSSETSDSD

DAPK3, sequence (O43293 whole entry): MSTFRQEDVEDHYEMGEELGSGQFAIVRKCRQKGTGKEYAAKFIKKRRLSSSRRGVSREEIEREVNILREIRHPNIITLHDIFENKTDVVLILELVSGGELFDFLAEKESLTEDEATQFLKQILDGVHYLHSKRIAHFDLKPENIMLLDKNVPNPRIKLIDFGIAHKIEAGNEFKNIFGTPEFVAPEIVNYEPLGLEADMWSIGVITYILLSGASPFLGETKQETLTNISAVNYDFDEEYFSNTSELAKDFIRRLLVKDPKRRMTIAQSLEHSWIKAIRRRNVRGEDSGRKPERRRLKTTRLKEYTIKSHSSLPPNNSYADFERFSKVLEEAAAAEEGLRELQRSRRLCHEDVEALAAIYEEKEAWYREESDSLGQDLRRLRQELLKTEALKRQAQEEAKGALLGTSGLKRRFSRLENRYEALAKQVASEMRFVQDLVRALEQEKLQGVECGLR
p38a, sequence (Q16539 whole entry): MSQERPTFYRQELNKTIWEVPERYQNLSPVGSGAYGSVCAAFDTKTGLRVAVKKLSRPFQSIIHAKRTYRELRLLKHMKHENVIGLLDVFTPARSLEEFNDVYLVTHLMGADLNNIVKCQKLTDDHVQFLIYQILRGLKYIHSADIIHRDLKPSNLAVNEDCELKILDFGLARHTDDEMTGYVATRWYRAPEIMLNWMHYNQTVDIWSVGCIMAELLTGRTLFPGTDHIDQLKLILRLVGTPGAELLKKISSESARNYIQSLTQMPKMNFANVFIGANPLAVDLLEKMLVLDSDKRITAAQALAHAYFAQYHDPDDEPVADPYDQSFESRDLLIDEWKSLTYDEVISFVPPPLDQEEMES
Erk2, sequence (P28482 whole entry): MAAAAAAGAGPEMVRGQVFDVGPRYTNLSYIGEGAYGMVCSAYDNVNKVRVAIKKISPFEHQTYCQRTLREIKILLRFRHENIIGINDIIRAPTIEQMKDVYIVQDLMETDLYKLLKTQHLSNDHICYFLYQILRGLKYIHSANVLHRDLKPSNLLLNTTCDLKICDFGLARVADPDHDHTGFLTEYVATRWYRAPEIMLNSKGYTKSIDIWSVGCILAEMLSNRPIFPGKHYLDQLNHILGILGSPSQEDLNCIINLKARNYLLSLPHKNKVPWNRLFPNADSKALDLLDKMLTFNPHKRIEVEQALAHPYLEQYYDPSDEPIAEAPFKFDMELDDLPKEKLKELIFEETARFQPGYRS
FES, sequence (P07332 whole entry): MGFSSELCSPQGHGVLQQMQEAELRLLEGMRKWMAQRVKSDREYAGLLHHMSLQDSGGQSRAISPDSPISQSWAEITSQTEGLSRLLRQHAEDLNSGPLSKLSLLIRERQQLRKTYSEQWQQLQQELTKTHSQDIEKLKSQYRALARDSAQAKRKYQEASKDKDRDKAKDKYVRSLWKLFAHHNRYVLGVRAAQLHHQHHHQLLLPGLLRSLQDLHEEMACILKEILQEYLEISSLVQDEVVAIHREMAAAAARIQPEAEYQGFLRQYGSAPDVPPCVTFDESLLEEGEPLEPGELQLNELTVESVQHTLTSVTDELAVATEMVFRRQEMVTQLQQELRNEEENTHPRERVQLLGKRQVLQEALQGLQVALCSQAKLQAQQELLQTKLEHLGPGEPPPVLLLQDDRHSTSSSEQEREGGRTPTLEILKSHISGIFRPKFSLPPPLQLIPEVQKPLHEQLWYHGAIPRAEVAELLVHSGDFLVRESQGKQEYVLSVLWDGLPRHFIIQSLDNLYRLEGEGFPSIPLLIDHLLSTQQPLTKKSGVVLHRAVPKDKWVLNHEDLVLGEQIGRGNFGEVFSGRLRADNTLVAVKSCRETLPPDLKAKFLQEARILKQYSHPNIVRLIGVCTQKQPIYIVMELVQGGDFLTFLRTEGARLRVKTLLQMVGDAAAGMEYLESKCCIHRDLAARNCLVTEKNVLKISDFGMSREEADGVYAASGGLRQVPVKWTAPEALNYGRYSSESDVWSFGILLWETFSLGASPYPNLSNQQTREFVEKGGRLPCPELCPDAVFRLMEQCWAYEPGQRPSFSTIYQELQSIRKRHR

As to `Cc1cccc(-c2ccc(-c3cc4cnc(Nc5ccc(F)c(CO)c5)nc4n(CCCCN)c3=O)c(Cl)c2)n1` [compound 33, 8-(4-Aminobutyl)-6-(2-chloro-4-(6-methylpyridin-2-yl)phenyl)-2-((4-fluoro-3-(hydroxymethyl)phenyl)amino)pyrido[2,3-d]pyrimidin-7(8H)-one], the “dTm 33” value on DAPK3 is 1.9 °C; on NEK1, -3.6 °C; at p38a it was 4.7 °C; at BRPF1 it was -2.7 °C; at FES, 8.9 °C; on Erk2, -0.7 °C.
Consider `COc1ccc(O)c(Nc2ncc3cc(-c4ccc(-c5cccc(C)n5)cc4Cl)c(=O)n(CCCCN)c3n2)c1` [compound 34, 8-(4-Aminobutyl)-6-(2-chloro-4-(6-methylpyridin-2-yl)phenyl)-2-((2-hydroxy-5-methoxy-phenyl)amino)pyrido[2,3-d]pyrimidin-7(8H)-one], for which the “dTm 34” value on DAPK3 is 1.5 °C; at NEK1, -1.0 °C; at p38a it was 3.0 °C; on BRPF1 it was -1.6 °C; at FES, 7.6 °C; at Erk2, -2.7 °C.
Regarding `COc1cc(N2CCOCC2)ccc1Nc1ncc2cc(-c3ccc(-c4cccc(C)n4)cc3Cl)c(=O)n(CCCCN)c2n1` [compound 35, 8-(4-Aminobutyl)-6-(2-chloro-4-(6-methylpyridin-2-yl)phenyl)-2-((2-methoxy-4-morpholino-phenyl)amino)pyrido[2,3-d]pyrimidin-7(8H)-one], the “dTm 35” value on DAPK3 was 3.2 °C; at NEK1, -0.7 °C; on p38a it was 3.8 °C; at BRPF1, -2.8 °C; on FES it was 8.3 °C; on Erk2, -3.0 °C.
`COc1cc(N2CCN(C)CC2)ccc1Nc1ncc2cc(-c3ccc(-c4cccc(C)n4)cc3Cl)c(=O)n(CCCCN)c2n1` [compound 36, 8-(4-Aminobutyl)-6-(2-chloro-4-(6-methylpyridin-2-yl)phenyl)-2-((2-methoxy-4-(4-methylpiperazin-1-yl)phenyl)amino)pyrido[2,3-d]pyrimidin-7(8H)-one]: the “dTm 36” value on DAPK3 was 1.6 °C; at NEK1, 0.0 °C; on p38a it was 3.7 °C; on BRPF1 it was -1.2 °C; at FES it was 9.0 °C; on Erk2 it was -2.7 °C.

The values are drawn from doi:10.1101/2023.11.24.568596v1 (biorxiv, 2023).
